Measured values as given in patent publication US8802162B2, “L-citrulline for treating endothelial dysfunction and erectile dysfunction” (Androsystems S.R.L., priority 2008, dated 2014).

Tests used:
[1] = Urinary excretion of nitrates, randomized prospective study in erectile dysfunction patients; assay type: in vivo; conditions: for Urinary excretion of nitrates, baseline: before administration; for Urinary excretion of nitrates, after administration: oral, L-citrulline 6 grams/day or L-arginine 3 grams/day, 7 days after beginning of administration
Description: (§1) The effectiveness of the administration of L-citrulline in the treatment of erectile dysfunction has been verified by conducting a randomized prospective study on 20 patients, during which L-citrulline was administered orally with a dosage of 6 grams/day, in two separate 3-gram doses, to patients affected by erectile dysfunction.
(§2) The effects of the administration were then tested at the biochemical level by studying the following parameters:
3. urinary excretion of nitrates;
(§3) The data related to the above cited biochemical parameters were acquired for patients subjected to the test 7 days after the beginning of the administration of the drug and are shown below in Table 1, Table 2, Table 3 and Table 4.

[2] = Urinary excretion of cGMP, randomized prospective study in erectile dysfunction patients; assay type: in vivo; conditions: for Urinary excretion of cGMP, baseline: before administration; for Urinary excretion of cGMP, after administration: oral, L-citrulline 6 grams/day or L-arginine 3 grams/day, 7 days after beginning of administration
Description: as §1, §2
4. urinary excretion of cGMP.
as §3

[3] = Plasma levels of L-arginine after oral administration, randomized prospective study in erectile dysfunction patients; assay type: in vivo; conditions: in words
Description: as §1, §2, §3

[4] = Blood L-arginine/ADMA ratio, randomized prospective study in erectile dysfunction patients; assay type: in vivo
Description: as §1, §2, §3

cavernous arteries = assay: Flow-mediated vasodilation of the cavernous arteries before and after therapy; assay type: in vivo, patients; conditions: oral 6 grams/day, before vs after therapy, in words
Description: as §1
(§4) Moreover, the effects at the clinical level were also tested by administering the “Erectile function assessment card” (IIF-5 questionnaire) to the patients and by measuring flow-mediated vasodilation of the cavernous arteries before and after therapy.

erectile dysfunction = assay: Erectile function assessment card (IIF-5 questionnaire); assay type: in vivo, patients; conditions: oral 6 grams/day, in words
Description: as §1, §4

| Structure (SMILES) | Urinary excretion of nitrates, baseline [1] [nmol/mmol creatinine] | Urinary excretion of nitrates, after administration [1] [nmol/mmol creatinine] | Urinary excretion of cGMP, baseline [2] [nmol/mmol creatinine] | Urinary excretion of cGMP, after administration [2] [nmol/mmol creatinine] | Plasma half-life of L-arginine with respect to administration of L-arginine [3] | Plasma levels of arginine with respect to administration of L-arginine [3] | L-arginine/ADMA ratio, baseline ([4]; baseline, before administration) | L-arginine/ADMA ratio, after administration ([4]; oral, L-citrulline 6 grams/day or L-arginine 3 grams/day, 7 days after beginning of administration) | Excretion of nitrates with respect to administration of L-arginine ([1]; oral administration, in words) | Increase in flow-mediated vasodilation at the level of the cavernous arteries (cavernous arteries) | Excretion of cGMP with respect to administration of L-arginine ([2]; oral administration, in words) | IIF-5 questionnaire, components related to achieving and maintaining erection (erectile dysfunction) |
| --- | --- | --- | --- | --- | --- | --- | --- | --- | --- | --- | --- | --- |
| N=C(N)NCCC[C@H](N)C(=O)O [L-arginine, reference compound] | 91 ± 10 | 93 ± 12 | 38 ± 3.1 | 39 ± 4.5 | – | – | – | – | – | – | – | – |
| NC(=O)NCCC[C@H](N)C(=O)O [L-citrulline] | 89 ± 9 | 133 ± 16 | 40 ± 2.8 | 55 ± 3.8 | statistically longer | statistically higher | 183 ± 8 | 290 ± 15 | higher excretion | statistically higher increase | higher excretion | leads to a modification of the IIF-5 questionnaire |
